Columns and labels:
[1] = target: T1, angiotensin II type 1 receptor (Oryctolagus cuniculus, UniProt P34976); experiment: Angiotensin II antagonistic activity in isolated rabbit blood vessels (angiotensin II-induced contraction of thoracic aorta ring); conditions: 0.1 μM compound, angiotensin II (10 nM)-induced contraction, read-out: Angiotensin II activity inhibition rate (%) at 0.1 μM concentration
T1 construct: By using a specimen of isolated rabbit blood vessels; from tissue; host or cells: rabbit thoracic aorta ring (New Zealand White, male)
T1 sequence (P34976 1-359): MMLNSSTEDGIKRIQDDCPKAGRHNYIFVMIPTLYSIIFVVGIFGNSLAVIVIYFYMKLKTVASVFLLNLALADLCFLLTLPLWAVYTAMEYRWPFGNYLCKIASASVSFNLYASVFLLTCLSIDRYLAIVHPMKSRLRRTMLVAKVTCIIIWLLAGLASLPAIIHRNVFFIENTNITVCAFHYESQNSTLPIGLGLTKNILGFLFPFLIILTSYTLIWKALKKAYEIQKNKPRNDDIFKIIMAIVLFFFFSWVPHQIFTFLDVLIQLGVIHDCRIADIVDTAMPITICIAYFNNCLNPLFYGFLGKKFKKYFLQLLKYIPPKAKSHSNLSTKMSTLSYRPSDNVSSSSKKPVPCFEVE
Method: By using a specimen of isolated rabbit blood vessels, antagonistic activity of the compounds of the invention against angiotensin II type 1 receptor was estimated from a dose-response curve of angiotensin II-induced blood vessel contraction. Specifically, the specimen of thoracic aorta ring of a rabbit (New Zealand White: male, 2.4 to 3.0 kg) was suspended in a magnus bath filled with Krebs-Henseleite buffer (composition: 118 mM NaCl, 4.7 mM KCl, 2.55 mM CaCl2, 1.18 mM MgSO4, 1.18 mM KH2PO4, 24.88 mM NaHCO3, and 11.1 mM D-glucose), and angiotensin II (10 nM)-induced contraction was obtained in the presence of the compounds of each example (1 nmol to 10 μmol/L). During the measurement, the inside temperature of the magnus bath was maintained at 37° C. and the bath was continuously ventilated with a sufficient amount of mixed gas (95% O2 and 5% CO2). The angiotensin II-induced contraction was converted into a relative value (%) that is based on the angiotensin II (10 nM)-induced contraction in the absence of the compounds of each example. From the concentration-response curve obtained therefrom, 50% inhibition concentration (IC50 value) was calculated by using SAS Preclinical Package Ver 5.0 (trade name, manufactured by SAS institute Japan Co., Tokyo, Japan), which is a statistical analysis program.

human PPARγ2 = target: T2, human PPARγ2 (Homo sapiens, UniProt P37231); experiment: PPARγ activation activity, Gal4-PPARγ2 LBD luciferase transfection assay in COST cells; format: cell-based; conditions: Gal4-human PPARγ2 LBD luciferase reporter, 16 hours, rosiglitazone = 100%
T2 construct: the amino acids 182 to 505 of human PPARγ2; expressed in transfected cells
T2 sequence (P37231 182-505): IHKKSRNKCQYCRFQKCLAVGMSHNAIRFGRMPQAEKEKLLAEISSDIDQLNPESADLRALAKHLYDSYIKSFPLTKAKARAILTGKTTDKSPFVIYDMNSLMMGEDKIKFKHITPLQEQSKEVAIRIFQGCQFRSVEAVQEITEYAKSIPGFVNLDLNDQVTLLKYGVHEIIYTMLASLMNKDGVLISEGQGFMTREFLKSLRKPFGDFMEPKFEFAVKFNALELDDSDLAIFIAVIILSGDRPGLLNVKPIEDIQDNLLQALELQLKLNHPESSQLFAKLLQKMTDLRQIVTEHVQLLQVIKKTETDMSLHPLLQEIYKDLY
Method: The agonistic activity of the compounds of the invention on PPARγ was measured based on the transfection assay using COST cells (DS Pharma Biomedical Co., Ltd., Osaka, Japan), which are the cell line derived from the kidney of the African green monkey. COST cells were cultured under 5% CO2 concentration, and DMEM medium containing 10% fetal bovine serum, glutamic acid, and antibiotics was used as a medium.
As an expression vector, a chimera in which DNA binding domain of Gal4, which is a yeast transcription factor, and ligand binding domain of human PPARγ2 are fused, i.e., a fused product between the amino acids 1 to 147 of Gal4 transcription factor and the amino acids 182 to 505 of human PPARγ2, was used. Furthermore, as a reporter vector, a firefly luciferase containing five copies of Gal4 recognition sequence in the promoter region was used. Plasmid transfection to the cells was performed according to a method which uses jetPEI (trade name, manufactured by Funakoshi Co., Ltd., Tokyo, Japan). Furthermore, β-galactosidase expression vector was employed as an internal standard.
After the transfection of the cells, the medium was replaced with a DMEM medium (containing 1% serum) added with the compound, and the cells were further cultured for 16 hours. After that, the luciferase activity and β-galactosidase activity in the cell lysis solution were measured.
For the present test, dimethyl sulfoxide (DMSO) was used for dissolution and dilution of the test compounds, and during the cell treatment, the DMSO concentration in DMEM medium (containing 1% serum) was adjusted to 0.1%. As a positive compound, rosiglitazone (trade name, manufactured by ALEXIS Corporation, Switzerland) was used. The luciferase activity (%) of the test compounds (1 to 30 μmol/L) was calculated when the luciferase activity of rosiglitazone (3 to 10 μmol/L) is 100% and the luciferase activity in the absence of the test compound is 0%. The 50% effective concentration of the test compound (EC50, 50% effect concentration) was calculated by using SAS Preclinical Package Ver 5.0 (trade name, manufactured by SAS institute Japan Co., Tokyo, Japan), which is a statistical analysis program.
Under the same condition, the PPARγ activation activity of telmisartan, i.e., EC50, was 1 to 5 μM. In addition, it was confirmed that compounds of Examples not shown in Table 2 also have PPARγ activation activity at a concentration of 30 μM.

CCCCCC(=O)NS(=O)(=O)c1ccccc1-c1ccc(Cc2c(CCCC)nc(C)n(-c3ncc(OCC)cn3)c2=O)cc1 [Example 7, N-{4′-{[4-butyl-1-(5-ethoxypyrimidin-2-yl)-2-methyl-6-oxo-1,6-dihydropyrimidin-5-yl]methyl}biphenyl-2-ylsulfonyl}hexanamide]
inhibition at 0.1 µM [1]: 89.3% | EC50 (human PPARγ2): 2210 nM
